These molecules were tested against Ba/F3(EGFR^Del19/T790M/C797S) cells (Homo sapiens, UniProt P00533, DEL746-750/T790M/C797S, cells depend on it) (assay: Assay of activity on Ba/F3 cells (CTG, 72 h)). Details: read-out: IC50 (nM) Ba/F3 (EGFR^Del19/T790M/C797S).
Type: cell-based
Procedure: (2) A compound stock solution was prepared, and then diluted 3× to obtain a compound dilution. 30 nL of the compound dilution was added to a 384-well plate by Echo (Labcyte, Echo550). The cells were incubated in an incubator at 37° C. and 5% CO2 for 72 h.
The percent inhibition rate (% inhibition) was calculated by the following formula
LUMcmpd: Luminescence value of assay compound.
LUMpositive: Average LUM value of positive drug at a concentration of 10 μM.
LUMvehicle. Average LUM value of negative control group without drug treatment.
The nonlinear regression curve (dose response-variable slope) between the value of inhibition rate (%) and the logarithm of compound concentration was fitted with graphpad prism 8.0, the effect dose curve of compound was drawn, and the IC50 value was calculated.
Y=Bottom+(Top−Bottom)/(1+1^((LogIC50−X)*HillSlope))
X-axis: logarithm of compound concentration; Y axis: inhibition rate ([…]).

Chain of Ba/F3(EGFR^Del19/T790M/C797S) cells (P00533 with tags, fused parts or gaps DEL746-750/T790M/C797S): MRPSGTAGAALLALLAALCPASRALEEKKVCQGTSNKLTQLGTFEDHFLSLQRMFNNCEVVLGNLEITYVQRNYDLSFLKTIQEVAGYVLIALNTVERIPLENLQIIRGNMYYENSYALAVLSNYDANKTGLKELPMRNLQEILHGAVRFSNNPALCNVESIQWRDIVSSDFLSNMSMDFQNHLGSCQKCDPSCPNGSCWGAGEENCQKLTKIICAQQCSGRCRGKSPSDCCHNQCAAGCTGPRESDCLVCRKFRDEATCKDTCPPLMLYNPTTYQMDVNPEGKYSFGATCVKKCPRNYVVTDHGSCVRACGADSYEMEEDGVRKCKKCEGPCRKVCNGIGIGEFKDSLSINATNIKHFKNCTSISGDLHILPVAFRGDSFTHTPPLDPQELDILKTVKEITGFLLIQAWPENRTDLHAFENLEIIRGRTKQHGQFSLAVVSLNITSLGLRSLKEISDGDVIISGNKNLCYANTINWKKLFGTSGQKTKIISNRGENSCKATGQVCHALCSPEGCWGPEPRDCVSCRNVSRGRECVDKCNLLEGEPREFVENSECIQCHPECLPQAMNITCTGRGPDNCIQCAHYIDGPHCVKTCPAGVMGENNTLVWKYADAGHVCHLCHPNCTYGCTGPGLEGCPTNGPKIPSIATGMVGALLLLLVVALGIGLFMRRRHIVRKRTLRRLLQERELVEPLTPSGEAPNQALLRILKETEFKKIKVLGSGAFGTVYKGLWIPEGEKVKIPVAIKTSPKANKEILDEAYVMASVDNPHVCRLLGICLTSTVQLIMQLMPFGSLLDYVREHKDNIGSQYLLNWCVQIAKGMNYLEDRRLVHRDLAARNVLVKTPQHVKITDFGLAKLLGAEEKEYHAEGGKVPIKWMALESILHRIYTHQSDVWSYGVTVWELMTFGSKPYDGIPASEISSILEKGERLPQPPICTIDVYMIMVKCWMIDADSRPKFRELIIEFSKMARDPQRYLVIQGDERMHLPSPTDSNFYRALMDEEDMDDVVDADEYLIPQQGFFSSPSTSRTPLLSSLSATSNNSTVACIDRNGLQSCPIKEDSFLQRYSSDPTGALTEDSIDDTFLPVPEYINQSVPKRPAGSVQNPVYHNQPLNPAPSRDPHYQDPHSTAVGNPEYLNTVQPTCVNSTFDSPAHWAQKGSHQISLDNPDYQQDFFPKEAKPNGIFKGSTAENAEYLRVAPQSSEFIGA

Structure (SMILES) | GI50
COc1cc(N2CCC(N3CCN(CCCCCCCCC#Cc4cccc5c4CN(C4CCC(=O)NC4=O)C5=O)CC3)CC2)ccc1Nc1ncc(Cl)c(Nc2ccccc2P(C)(C)=O)n1 (stereo not drawn) [Compound C179, 3-(4-(10-(4-(1-(4-((5-chloro-4-((2-(dimethylphosphoryl)phenyl)amino)pyrimidin-2-yl)amino)-3-methoxyphenyl)piperidin-4-yl)piperazin-1-yl)dec-1-yn-1-yl)-1-oxoisoindolin-2-yl)piperidine-2,6-dione] | 1 to 100 nM
COc1cc(N2CCC(N3CCN(CCCCC#Cc4cc(C#N)cc5c4CN(C4CCC(=O)NC4=O)C5=O)CC3)CC2)ccc1Nc1ncc(Cl)c(Nc2ccccc2P(C)(C)=O)n1 (stereo not drawn) [Compound C259, 7-(6-(4-(1-(4-((5-chloro-4-((2-(dimethylphosphoryl)phenyl)amino)pyrimidin-2-yl)amino)-3-methoxyphenyl)piperidin-4-yl)piperazin-1-yl)hex-1-yn-1-yl)-2-(2,6-dioxopiperidin-3-yl)-3-oxoisoindoline-5-carbonitrile] | 1 to 100 nM
COc1cc(N2CCC(N3CCN(CCCC#Cc4ccc5c(c4)CN(C4CCC(=O)NC4=O)C5=O)CC3)CC2)ccc1Nc1ncc(Cl)c(Nc2ccccc2P(C)(C)=O)n1 (stereo not drawn) [Compound C218, 3-(5-(5-(4-(1-(4-((5-chloro-4-((2-(dimethylphosphoryl)phenyl)amino)pyrimidin-2-yl)amino)-3-methoxyphenyl)piperidin-4-yl)piperazin-1-yl)pent-1-yn-1-yl)-1-oxoisoindolin-2-yl)piperidine-2,6-dione] | 1 to 100 nM
COc1cc(N2CCC(N3CCN(CCCCc4ccc(-c5ccc6c(c5)CN(C5CCC(=O)NC5=O)C6=O)cc4)CC3)CC2)ccc1Nc1ncc(Cl)c(Nc2ccccc2P(C)(C)=O)n1 (stereo not drawn) [Compound C236, 3-(5-(4-(4-(4-(1-(4-((5-chloro-4-((2-(dimethylphosphoryl)phenyl)amino)pyrimidin-2-yl)amino)-3-methoxyphenyl)piperidin-4-yl)piperazin-1-yl)butyl)phenyl)-1-oxoisoindolin-2-yl)piperidine-2,6-dione] | 1 to 100 nM
COc1cc(N2CCC(N3CCN(CCCCC#Cc4cc(C(F)(F)F)cc5c4CN(C4CCC(=O)NC4=O)C5=O)CC3)CC2)ccc1Nc1ncc(Cl)c(Nc2ccccc2P(C)(C)=O)n1 (stereo not drawn) [Compound C268, 3-(4-(6-(4-(1-(4-((5-chloro-4-((2-(dimethylphosphoryl)phenyl)amino)pyrimidin-2-yl)amino)-3-methoxyphenyl)piperidin-4-yl)piperazin-1-yl)hex-1-yn-1-yl)-1-oxo-6-(trifluoromethyl)isoindolin-2-yl)piperidine-2,6-dione] | 1 to 100 nM
COc1cc(N2CCC(N3CCN(CCCCCCCCc4cccc5c4CN(C4CCC(=O)NC4=O)C5=O)CC3)CC2)ccc1Nc1ncc(Cl)c(Nc2ccccc2P(C)(C)=O)n1 (stereo not drawn) [Compound C240, 3-(4-(8-(4-(1-(4-((5-chloro-4-((2-(dimethylphosphoryl)phenyl)amino)pyrimidin-2-yl)amino)-3-methoxyphenyl)piperidin-4-yl)piperazin-1-yl)octyl)-1-oxoisoindolin-2-yl)piperidine-2,6-dione] | 1 to 100 nM
COc1cc(N2CCC(N3CCN(CCCCCC#Cc4ccc(F)c5c4CN(C4CCC(=O)NC4=O)C5=O)CC3)CC2)ccc1Nc1ncc(Cl)c(Nc2ccccc2P(C)(C)=O)n1 (stereo not drawn) [Compound C243, 3-(4-(7-(4-(1-(4-((5-chloro-4-((2-(dimethylphosphoryl)phenyl)amino)pyrimidin-2-yl)amino)-3-methoxyphenyl)piperidin-4-yl)piperazin-1-yl)hept-1-yn-1-yl)-7-fluoro-1-oxoisoindolin-2-yl)piperidine-2,6-dione] | 1 to 100 nM
COc1cc(N2CCC(N3CCN(CCCCCC#Cc4cc(C(F)(F)F)cc5c4CN(C4CCC(=O)NC4=O)C5=O)CC3)CC2)ccc1Nc1ncc(Cl)c(Nc2ccccc2P(C)(C)=O)n1 (stereo not drawn) [Compound C267, 3-(4-(7-(4-(1-(4-((5-chloro-4-((2-(dimethylphosphoryl)phenyl)amino)pyrimidin-2-yl)amino)-3-methoxyphenyl)piperidin-4-yl)piperazin-1-yl)hept-1-yn-1-yl)-1-oxo-6-(trifluoromethyl)isoindolin-2-yl)piperidine-2,6-dione] | 1 to 100 nM
COc1cc(N2CCC(N3CCN(CCCCCC#Cc4cc(Cl)cc5c4CN(C4CCC(=O)NC4=O)C5=O)CC3)CC2)ccc1Nc1ncc(Cl)c(Nc2ccccc2P(C)(C)=O)n1 (stereo not drawn) [Compound C202, 3-(6-chloro-4-(7-(4-(1-(4-((5-chloro-4-((2-(dimethylphosphoryl)phenyl)amino)pyrimidin-2-yl)amino)-3-methoxyphenyl)piperidin-4-yl)piperazin-1-yl)hept-1-yn-1-yl)-1-oxoisoindolin-2-yl)piperidine-2,6-dione] | 1 to 100 nM

The next lines start with the values.

GI50 | Structure (SMILES)
1 to 100 nM | COc1cc(N2CCC3(CCN(CCCCCCOc4cccc5c4CN(C4CCC(=O)NC4=O)C5=O)CC3)CC2)c(C)cc1Nc1ncc(Br)c(Nc2ccc3nccnc3c2P(C)(C)=O)n1 (stereo not drawn) [Compound C212, 3-(4-((6-(9-(4-((5-bromo-4-((5-(dimethylphosphoryl)quinoxalin-6-yl)amino)pyrimidin-2-yl)amino)-5-methoxy-2-methylphenyl)-3,9-diazaspiro[5.5]undecan-3-yl)hexyl)oxy)-1-oxoisoindolin-2-yl)piperidine-2,6-dione]
1 to 100 nM | COc1cc(N2CCC(N3CCN(CCCC#Cc4cc(C(F)(F)F)cc5c4CN(C4CCC(=O)NC4=O)C5=O)CC3)CC2)ccc1Nc1ncc(Cl)c(Nc2ccccc2P(C)(C)=O)n1 (stereo not drawn) [Compound C269, 3-(4-(5-(4-(1-(4-((5-chloro-4-((2-(dimethylphosphoryl)phenyl)amino)pyrimidin-2-yl)amino)-3-methoxyphenyl)piperidin-4-yl)piperazin-1-yl)pent-1-yn-1-yl)-1-oxo-6-(trifluoromethyl)isoindolin-2-yl)piperidine-2,6-dione]
1 to 100 nM | COc1cc(N2CCC(N3CCN(CCCCCC#Cc4cc(C#N)cc5c4CN(C4CCC(=O)NC4=O)C5=O)CC3)CC2)c(C)cc1Nc1ncc(Br)c(Nc2ccc3nccnc3c2P(C)(C)=O)n1 (stereo not drawn) [Compound C229, 7-(7-(4-(1-(4-((5-bromo-4-((5-(dimethylphosphoryl)quinoxalin-6-yl)amino)pyrimidin-2-yl)amino)-5-methoxy-2-methylphenyl)piperidin-4-yl)piperazin-1-yl)hept-1-yn-1-yl)-2-(2,6-dioxopiperidin-3-yl)-3-oxoisoindoline-5-carbonitrile]
1 to 100 nM | COc1cc(N2CCC(N3CCN(CCCC#Cc4cccc5c4CN(C4CCC(=O)NC4=O)C5=O)CC3)CC2)ccc1Nc1ncc(Cl)c(Nc2ccccc2P(C)(C)=O)n1 (stereo not drawn) [Compound C126, 3-(4-(5-(4-(1-(4-((5-chloro-4-((2-(dimethylphosphoryl)phenyl)amino)pyrimidin-2-yl)amino)-3-methoxyphenyl)piperidin-4-yl)piperazin-1-yl)pent-1-yn-1-yl)-1-oxoisoindolin-2-yl)piperidine-2,6-dione]
1 to 100 nM | COc1cc(N2CCC(N3CCN(CCCC#Cc4cc(C#N)cc5c4CN(C4CCC(=O)NC4=O)C5=O)CC3)CC2)ccc1Nc1ncc(Cl)c(Nc2ccccc2P(C)(C)=O)n1 (stereo not drawn) [Compound C258, 7-(5-(4-(1-(4-((5-chloro-4-((2-(dimethylphosphoryl)phenyl)amino)pyrimidin-2-yl)amino)-3-methoxyphenyl)piperidin-4-yl)piperazin-1-yl)pent-1-yn-1-yl)-2-(2,6-dioxopiperidin-3-yl)-3-oxoisoindoline-5-carbonitrile]
1 to 100 nM | COc1cc(N2CCC(N3CCN(CCCC#Cc4cccc5c4CN(C4CCC(=O)NC4=O)C5=O)CC3)CC2)c(C)cc1Nc1ncc(Br)c(Nc2ccc3nccnc3c2P(C)(C)=O)n1 (stereo not drawn) [Compound C227, 3-(4-(5-(4-(1-(4-((5-bromo-4-((5-(dimethylphosphoryl)quinoxalin-6-yl)amino)pyrimidin-2-yl)amino)-5-methoxy-2-methylphenyl)piperidin-4-yl)piperazin-1-yl)pent-1-yn-1-yl)-1-oxoisoindolin-2-yl)piperidine-2,6-dione]
1 to 100 nM | COc1cc(N2CCC3(CCN(CCCCCC#Cc4cc(F)cc5c4CN(C4CCC(=O)NC4=O)C5=O)CC3)CC2)c(C)cc1Nc1ncc(Br)c(Nc2ccc3nccnc3c2P(C)(C)=O)n1 (stereo not drawn) [Compound C185, 3-(4-(7-(9-(4-((5-bromo-4-((5-(dimethylphosphoryl)quinoxalin-6-yl)amino)pyrimidin-2-yl)amino)-5-methoxy-2-methylphenyl)-3,9-diazaspiro[5.5]undecan-3-yl)hept-1-yn-1-yl)-6-fluoro-1-oxoisoindolin-2-yl)piperidine-2,6-dione]
1 to 100 nM | COc1cc(N2CCC3(CCN(CCCCc4cccc5c4CN(C4CCC(=O)NC4=O)C5=O)CC3)CC2)c(C)cc1Nc1ncc(Br)c(Nc2ccc3nccnc3c2P(C)(C)=O)n1 (stereo not drawn) [Compound C302, 3-(4-(4-(9-(4-((5-bromo-4-((5-(dimethylphosphoryl)quinoxalin-6-yl)amino)pyrimidin-2-yl)amino)-5-methoxy-2-methylphenyl)-3,9-diazaspiro[5.5]undecan-3-yl)butyl)-1-oxoisoindolin-2-yl)piperidine-2,6-dione]
1 to 100 nM | COc1cc(N2CCC3(CCN(CCCC#Cc4cccc5c4CN(C4CCC(=O)NC4=O)C5=O)CC3)CC2)c(C)cc1Nc1ncc(Br)c(Nc2ccc3nccnc3c2P(C)(C)=O)n1 (stereo not drawn) [Compound C228, 3-(4-(5-(9-(4-((5-bromo-4-((5-(dimethylphosphoryl)quinoxalin-6-yl)amino)pyrimidin-2-yl)amino)-5-methoxy-2-methylphenyl)-3,9-diazaspiro[5.5]undecan-3-yl)pent-1-yn-1-yl)-1-oxoisoindolin-2-yl)piperidine-2,6-dione]
